Test results published in patent US11999727B2 (Tango Therapeutics, Inc., priority 2020, dated 2024).
Where two headings read alike, the source gives them in different places.

Experiments:
[1] = target: T1, PRMT5 (Homo sapiens, UniProt O14744); test: PRMT5 biochemical IC50 assay with MTA as cofactor; settings: PRMT5, MTA as cofactor; read-out: MTA IC50
T1 construct: purchased Viva (custom protein)

[2] = target: T1, PRMT5; test: PRMT5 biochemical IC50 assay with SAM as cofactor; settings: PRMT5, SAM as cofactor; read-out: SAM IC50
[3] = test system: HAP1 MTAP-deleted cell line; test: Viability assay, MTAP-deleted cell line; assay type: cell-based; settings: read-out: HAP1 MTAP deleted viability
From the text: Table 1 additionally indicates IC50 values in a viability assay for the MTAP-deleted cell line (column 10), indicating the effect of treatment with compound on cell survival.

[4] = test system: HAP1 MTAP-deleted cell line; test: SDMA in-cell western assay, HAP1 MTAP-deleted; assay type: cell-based; settings: for IC50: HAP1 MTAP-deleted; for MTAP intact/deleted ratio: IC50 ratio HAP1 MTAP-intact / HAP1 MTAP-deleted
Method in brief: (§1)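 IC50 values come from SDMA signal quantified by in-cell western in two HAP1 lines, one with native MTAP levels and one lacking MTAP.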

[5] = test system: HAP1 MTAP-intact cell line; test: SDMA in-cell western assay, HAP1 MTAP-intact; assay type: cell-based; settings: HAP1 MTAP-intact, read-out: MTAP HAP1 intact IC50
Method in brief: as §1

[6] = target: T1, PRMT5; test: PRMT5 biochemical IC50 assay with no cofactor; settings: PRMT5, no cofactor
From the text: Table 1 indicates IC50 values (μM) against PRMT5 for exemplary compounds in the presence of SAM as cofactor, with no cofactor, and with MTA as cofactor, respectively (columns 4-6). […] Ki values can be calculated from the IC50 values as described in the Examples section. As detailed in the Examples section, for the assay performed in the presence of SAM, IC50=Ki×1.5 (Ki=IC50/1.5).

[7] = Homo sapiens, HAP1, viability assay, MTAP-deleted cell line
[8] = Homo sapiens, HAP1, SDMA in-cell western, read-out: HAP1 MTAP deleted IC50
[9] = Homo sapiens, HAP1, SDMA in-cell western
[10] = Homo sapiens, HAP1, SDMA in-cell western, read-out: HAP 1 MTAP deleted IC50
[11] = Homo sapiens, HAP1, viability assay, HAP1 MTAP-deleted
[12] = read-out: No Cofactor/ rel IC50

T1 sequence (O14744 whole entry): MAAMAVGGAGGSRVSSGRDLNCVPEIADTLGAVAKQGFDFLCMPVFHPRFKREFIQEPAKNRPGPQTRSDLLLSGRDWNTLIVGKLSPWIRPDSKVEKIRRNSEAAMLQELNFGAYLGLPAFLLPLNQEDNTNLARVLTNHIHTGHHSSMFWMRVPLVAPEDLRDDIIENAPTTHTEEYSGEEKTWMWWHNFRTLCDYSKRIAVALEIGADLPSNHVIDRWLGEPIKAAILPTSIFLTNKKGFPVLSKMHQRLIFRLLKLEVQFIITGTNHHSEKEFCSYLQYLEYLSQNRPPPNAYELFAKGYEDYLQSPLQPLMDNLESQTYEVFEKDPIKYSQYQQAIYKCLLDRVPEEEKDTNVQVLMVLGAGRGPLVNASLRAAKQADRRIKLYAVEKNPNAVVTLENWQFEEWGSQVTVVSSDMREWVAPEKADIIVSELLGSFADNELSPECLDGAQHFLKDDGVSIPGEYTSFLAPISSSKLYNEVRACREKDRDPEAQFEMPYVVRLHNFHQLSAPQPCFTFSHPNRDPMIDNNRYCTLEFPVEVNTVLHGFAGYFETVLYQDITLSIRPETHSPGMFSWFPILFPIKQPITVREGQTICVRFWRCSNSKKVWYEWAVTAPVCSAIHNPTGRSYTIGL
T1 sequence (Q9BQA1 whole entry partner): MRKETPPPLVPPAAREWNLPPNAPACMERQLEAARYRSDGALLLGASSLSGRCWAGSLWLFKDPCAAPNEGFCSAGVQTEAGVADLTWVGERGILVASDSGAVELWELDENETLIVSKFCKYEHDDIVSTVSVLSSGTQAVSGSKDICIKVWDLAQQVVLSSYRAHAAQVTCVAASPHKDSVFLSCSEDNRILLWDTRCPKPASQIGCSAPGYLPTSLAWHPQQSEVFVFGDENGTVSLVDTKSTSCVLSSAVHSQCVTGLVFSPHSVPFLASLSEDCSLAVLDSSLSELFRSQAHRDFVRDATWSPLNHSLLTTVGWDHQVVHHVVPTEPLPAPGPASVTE

Structure (SMILES)	IC50 [1]	IC50 [2]	IC50 [3, 7]	IC50 [4, 8]	MTAP intact/deleted ratio ([4]; SDMA in-cell western)	IC50 [5, 9]	IC50 ([6]; read-out: No Cofactor/rel IC50)	IC50 [4, 10]	IC50 [3, 11]	IC50 ([3]; viability assay, MTAP-deleted cell line)	IC50 ([4]; SDMA in-cell western, read-out: HAP 1 MTAP deleted IC50)	IC50 ([5]; SDMA in-cell western)	IC50 [6, 12]	IC50 ([3]; Homo sapiens, HAP1, viability, HAP1 MTAP-deleted cell line)	IC50 ([3]; Homo sapiens, HAP1, viability IC50, MTAP-deleted cell line)
Cc1cc([C@@H]2CC[C@@H](C)CN2C(=O)C(=O)Nc2cncc(C(N)=O)c2)ccc1O (single isomer, unassigned) [Compound 323]	< 50 nM	50 to 500 nM	< 1000 nM	< 100 nM	A (an IC50 ratio greater than or equal to 10 fold)	100 to 1000 nM	< 50 nM	–	–	–	–	–	–	–	–
Cc1cc(NC(=O)C(=O)N2C[C@H](C)CC[C@H]2C2CCCC2)cnc1N (racemic) [Compound 190, N-(6-amino-5-methyl-3-pyridyl)-2-[(2S,5R)-2-cyclopentyl-5-methyl-1-piperidyl]-2-oxo-acetamide]	< 50 nM	50 to 500 nM	1000 to 10000 nM	100 to 1000 nM	B (an IC50 ratio greater than or equal to 3 fold but lower than 10 fold)	> 1000 nM	50 to 500 nM	–	–	–	–	–	–	–	–
C[C@@H]1CC[C@@H](c2cnc3c(c2)CCC(=O)N3)N(C(=O)C(=O)Nc2cncc(C(N)=O)c2)C1 (racemic) [Compound 888, rac-5-[[2-[(2S,5R)-5-Methyl-2-(7-oxo-6,8-dihydro-5H-1,8-naphthyridin-3-yl)-1-piperidyl]-2-oxo-acetyl]amino]pyridine-3-carboxamide]	50 to 500 nM	50 to 500 nM	> 10000 nM	–	C (an IC50 ratio of less than 3 fold)	> 1000 nM	50 to 500 nM	> 1000 nM	–	–	–	–	–	–	–
COc1ncc(NC(=O)C(=O)N2C[C@H](C)CC[C@H]2c2ccc(C)nc2)cc1C(N)=O (single isomer, unassigned) [Compound 754]	< 50 nM	50 to 500 nM	–	< 100 nM	A (an IC50 ratio greater than or equal to 10 fold)	> 1000 nM	50 to 500 nM	–	1000 to 10000 nM	–	–	–	–	–	–
NC(=O)c1cncc(NC(=O)C(=O)N2CCCCC2C2CCCCC2)c1 (single isomer, unassigned) [Compound 113, 5-(2-(2-cyclohexylpiperidin-1-yl)-2-oxoacetamido)nicotinamide]	< 50 nM	50 to 500 nM	–	–	A (an IC50 ratio greater than or equal to 10 fold)	–	–	–	–	1000 to 10000 nM	< 100 nM	> 1000 nM	50 to 500 nM	–	–
CCc1cc(NC(=O)C(=O)N2C[C@@H](C)CC[C@@H]2c2ccc3sc(C4CCN(C)CC4C)nc3c2)cnc1N (stereo partly drawn) [Compound 1382, N-(6-amino-5-ethyl-3-pyridyl)-2-[(5S)-2-[2-(1,3-dimethyl-4-piperidyl)-1,3-benzothiazol-5-yl]-5-methyl-1-piperidyl]-2-oxo-acetamide]	< 50 nM	< 50 nM	–	–	A (an IC50 ratio greater than or equal to 10 fold)	< 100 nM	–	< 100 nM	–	–	–	–	< 50 nM	< 1000 nM	–
CC(=O)N1CCC(c2cccc([C@H]3CC[C@H](C)CN3C(=O)C(=O)Nc3cnc(N)c(C)c3)c2)CC1 (single isomer, unassigned) [Compound 324]	< 50 nM	50 to 500 nM	< 1000 nM	< 100 nM	A (an IC50 ratio greater than or equal to 10 fold)	100 to 1000 nM	< 50 nM	–	–	–	–	–	–	–	–
CCc1cc(NC(=O)C(=O)N2C[C@H](C)CC[C@H]2c2cccc3[nH]ncc23)cnc1N (racemic) [Compound 911, N-(6-amino-5-ethyl-3-pyridyl)-2-[(2S,5R)-2-(1H-indazol-4-yl)-5-methyl-1-piperidyl]-2-oxo-acetamide]	> 500 nM	> 500 nM	> 10000 nM	–	C (an IC50 ratio of less than 3 fold)	> 1000 nM	> 500 nM	> 1000 nM	–	–	–	–	–	–	–
Cc1n[nH]c2ccc([C@@H]3CC[C@@H](C)CN3C(=O)C(=O)Nc3cncc(C(N)=O)c3)cc12 (racemic) [Compound 500, rac-5-[[2-[(2S,5R)-5-Methyl-2-(3-methyl-1H-indazol-5-yl)-1-piperidyl]-2-oxo-acetyl]amino]pyridine-3-carboxamide]	50 to 500 nM	50 to 500 nM	1000 to 10000 nM	100 to 1000 nM	A (an IC50 ratio greater than or equal to 10 fold)	> 1000 nM	50 to 500 nM	–	–	–	–	–	–	–	–
COc1ncc(NC(=O)C(=O)N2C[C@H](C)CC[C@H]2c2ccc(C(N)=O)s2)cc1C(N)=O (single isomer, unassigned) [Compound 844]	> 500 nM	> 500 nM	–	> 1000 nM	C (an IC50 ratio of less than 3 fold)	> 1000 nM	> 500 nM	–	> 10000 nM	–	–	–	–	–	–
Cc1cc(NC(=O)C(=O)N2C[C@H](C)CC[C@H]2c2ccc(-c3cn[nH]c3)cc2)cnc1N (racemic) [Compound 525, rac N-(6-amino-5-methyl-3-pyridyl)-2-[(2S,5R)-5-methyl-2-[4-(1H-pyrazol-4-yl)phenyl]-1-piperidyl]-2-oxo-acetamide]	50 to 500 nM	> 500 nM	< 1000 nM	< 100 nM	A (an IC50 ratio greater than or equal to 10 fold)	100 to 1000 nM	50 to 500 nM	–	–	–	–	–	–	–	–
C[C@@H]1C[C@H](c2ccccc2)N(C(=O)C(=O)Nc2cncc(C(N)=O)c2)C[C@@H]1C (racemic) [Compound 229, 5-[[2-[(2S,4S,5S)-4,5-dimethyl-2-phenyl-1-piperidyl]-2-oxo-acetyl]amino]pyridine-3-carboxamide]	50 to 500 nM	> 500 nM	> 10000 nM	> 1000 nM	B (an IC50 ratio greater than or equal to 3 fold but lower than 10 fold)	> 1000 nM	> 500 nM	–	–	–	–	–	–	–	–
Cc1cc(NC(=O)C(=O)N2CCCC[C@H]2c2cccs2)cnc1N (single isomer, unassigned) [Compound 22]	50 to 500 nM	> 500 nM	> 10000 nM	–	B (an IC50 ratio greater than or equal to 3 fold but lower than 10 fold)	> 1000 nM	–	> 1000 nM	–	–	–	–	> 500 nM	–	–
COc1ncc(NC(=O)C(=O)N2C[C@H](C)CC[C@H]2c2cscn2)cc1C(N)=O (single isomer, unassigned) [Compound 1042]	< 50 nM	50 to 500 nM	1000 to 10000 nM	–	A (an IC50 ratio greater than or equal to 10 fold)	> 1000 nM	50 to 500 nM	< 100 nM	–	–	–	–	–	–	–
Cc1cncc(NC(=O)C(=O)N2C[C@H](C)CC[C@H]2c2ccnc(C)c2)c1 (racemic) [Compound 14, 2-[(2S,5R)-5-methyl-2-(2-methyl-4-pyridyl)-1-piperidyl]-N-(5-methyl-3-pyridyl)-2-oxo-acetamide]	50 to 500 nM	50 to 500 nM	> 10000 nM	–	C (an IC50 ratio of less than 3 fold)	> 1000 nM	–	> 1000 nM	–	–	–	–	> 500 nM	–	–
Cc1cc(NC(=O)C(=O)N2C[C@@H](C)CC[C@@H]2[C@@H]2CCC[C@@H](O)C2)cnc1N (single isomer, unassigned) [Compound 568]	> 500 nM	> 500 nM	–	–	C (an IC50 ratio of less than 3 fold)	> 1000 nM	> 500 nM	> 1000 nM	–	–	–	–	–	–	> 10000 nM
Cc1cc(NC(=O)C(=O)N2CCCCC2C2CCCC2)cnc1N (stereo not drawn) [Compound 61, N-(6-amino-5-methyl-3-pyridyl)-2-(2-cyclopentyl-1-piperidyl)-2-oxo-acetamide]	50 to 500 nM	> 500 nM	1000 to 10000 nM	–	A (an IC50 ratio greater than or equal to 10 fold)	> 1000 nM	–	< 100 nM	–	–	–	–	50 to 500 nM	–	–
Cn1nccc1C1CCCCN1C(=O)C(=O)Nc1cncc(C(N)=O)c1 (stereo not drawn) [Compound 26, 5-[[2-[2-(2-methylpyrazol-3-yl)-1-piperidyl]-2-oxo-acetyl]amino]pyridine-3-carboxamide]	50 to 500 nM	50 to 500 nM	> 10000 nM	–	A (an IC50 ratio greater than or equal to 10 fold)	> 1000 nM	–	100 to 1000 nM	–	–	–	–	> 500 nM	–	–
